# Assay results: patent US20090082341A1 (SYNOSIA THERAPEUTICS, priority 2007, published 2009)
# Entries after “also recorded” stand apart in the source; their conditions may differ.
# Experiments:
# [1] = test system: male Wistar rats; assay: APEC-induced hypolocomotion test; type: in vivo, rat
# Procedure: APEC (2-[(2-aminoethylamino)carbonylethyl-phenyl-ethylamino]-5′-ethylcarboxamido-adenosine), an A2A receptor agonist, reduces spontaneous motor activity in a dose-dependent manner. APEC-induced hypolocomotion is attenuated by selective A2A receptor antagonists but not by selective A1 receptor antagonists.
# Control animals received vehicle only or vehicle and APEC. The animals were placed in plexiglass test cages with arrays of photocells linked to a computer, and motor activity was recorded for 15 min. Data are mean±SEM based on 8 animals per group.
# APEC (2-[(2-aminoethylamino)carbonylethyl-phenyl-ethylamino]-5′-ethylcarboxamidoadenosine) is an adenosine A2A receptor agonist which reduces spontaneous motor activity in a dose-dependent manner. APEC-induced hypolocomotion is attenuated by selective A2A receptor antagonists but not by selective A1 receptor antagonists (Marston H M et al. Pharmacological characterization of a simple behavioral response mediated selectively by central adenosine A1 receptors, using in vivo and in vitro techniques. J Pharm Exp Ther. 1998; 285:1023-1030.)
# (§1) Male adult Wistar rats (HanBrl: Wist (SPF) RCC) weighing approximately 140-200 g were used. The animals were housed in groups of four in Macrolon Type 3 cages (810 cm^2) with sawdust bedding. Tap water and standard laboratory chow (Ratte Alleinfutter, extrudat No 3436; Provimikliba Kaiseraugst, Switzerland) were continuously available except during testing. The animal quarters were maintained on a 12:12 hr light-dark cycle with light onset at 6 a.m. Room temperature (21-23° C.) and humidity (55-65%) were kept constant. At the conclusion of testing, rats were euthanized by means of CO2 inhalation. […]
# Locomotor activity was monitored with a Digiscan Animal Activity Monitoring system (Model RXYZCM Omnitech Electronics, Columbus, Ohio). […] Ten minutes after APEC administration, animals were then placed in the test cages where horizontal activity was recorded for 15 min. […]
# Data was analyzed by Kruskal-Wallis ANOVA followed by Mann-Whitney U-test. […]
# [2] = test system: male Wistar rats; assay: Passive avoidance test, scopolamine-induced amnesia; type: in vivo, rat
# Description: This test relies on training rodents to avoid an aversive event (electric shock) by curbing a normal behavior, and at specified intervals after training, testing the animals for retention of such learning.
# Adult rats were trained in a step-down test to avoid foot shock by remaining on a plastic platform. […] Amnesia was induced by administering scopolamine subcutaneously (sc) given immediately post-training.
# The protocol to generate FIG. 6 data are as follows: Adult rats (n=16/dose group) were trained to avoid foot shock by remaining on a plastic platform in a step-down test. […] Amnesia was induced by administration of scopolamine sc at 1 mg/kg immediately post-training. Retention, measured as the % of rats with correct responses, was assessed 2 h post-training.
# as §1, with “WIST (SPF); RCC Füllinsdorf)” for “Wist (SPF) RCC)”, “94-113” for “140-200”, “a.m.” for “a.m. Room temperature (21-23° C.) and humidity (55-65%) were kept constant. At the conclusion of testing, rats were euthanized by means of CO2 inhalation.”
# Two hours after the training and the post-training treatment, each rat was evaluated for retention of the passive avoidance response in the retention test. […]
# [3] = target: T1, A2A receptors in the rat (Rattus norvegicus, UniProt P30543); assay: Radioligand binding assay, rat A2A receptor; conditions: read-out: pKi, rat A2A receptor (converted)
# T1 construct: made in house; host or cells: CHO cells, Semliki Forest virus expression system
# T1 sequence (P30543 whole entry): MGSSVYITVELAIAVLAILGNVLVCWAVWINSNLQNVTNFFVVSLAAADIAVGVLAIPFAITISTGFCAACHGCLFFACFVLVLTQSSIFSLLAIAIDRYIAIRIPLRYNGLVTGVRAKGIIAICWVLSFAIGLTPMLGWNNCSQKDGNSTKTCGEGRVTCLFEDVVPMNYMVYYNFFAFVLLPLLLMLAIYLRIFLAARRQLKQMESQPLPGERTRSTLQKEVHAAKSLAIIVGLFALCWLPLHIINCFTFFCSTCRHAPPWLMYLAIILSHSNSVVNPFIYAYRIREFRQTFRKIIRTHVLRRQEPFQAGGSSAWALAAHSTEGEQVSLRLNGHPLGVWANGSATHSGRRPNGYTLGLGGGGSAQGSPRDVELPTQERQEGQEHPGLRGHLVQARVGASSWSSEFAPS
# [4] = target: T2, hA1 (Homo sapiens, UniProt P30542); assay: Radioligand binding assay, human A1 receptor; conditions: recombinant hA1
# T2 construct: made in house; host or cells: CHO cells, Semliki Forest virus expression system
# T2 sequence (P30542 1-326): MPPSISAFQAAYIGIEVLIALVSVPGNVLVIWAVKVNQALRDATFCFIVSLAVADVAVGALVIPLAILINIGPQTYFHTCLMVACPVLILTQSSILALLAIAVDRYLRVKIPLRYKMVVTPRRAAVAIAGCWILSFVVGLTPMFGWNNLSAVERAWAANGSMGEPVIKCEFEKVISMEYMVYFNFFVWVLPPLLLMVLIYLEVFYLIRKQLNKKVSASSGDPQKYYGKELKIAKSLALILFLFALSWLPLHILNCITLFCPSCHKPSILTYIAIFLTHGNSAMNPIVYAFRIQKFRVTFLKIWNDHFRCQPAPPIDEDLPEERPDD
# Procedure: Recombinant adenosine A1 (human, hA1; rat rA1), A2A (human hA2A; rat rA2A), A2B (human hA2B), and A3 (human hA3, dog dA3) were expressed in chinese hamster ovary (CHO) cells using the semliki forest virus expression system. […] The pellet was re-suspended in homogenizing buffer, and subsequently re-centrifuged (same conditions). The pellet was re-suspended in buffer (10 mM Tris-Cl, EDTA 2 mM pH 7.4 and adenosine deaminase 0.5 U/ml), incubated at 37° C. for 15 min, then re-centrifuged. The resulting pellet was re-suspended in Tris 10 mM, EDTA 2 mM and 10% Sucrose. The concentration of protein was determined, and the membranes were aliquoted and stored at −80° C. until further use.
# Non-specific binding was defined using xanthine amine congener or NECA. […] For both SPA and filtration plates, bound ligand was determined using a Packard Topcount scintillation counter.
# The CPM value for each duplicate of a concentration of competing compound was averaged (y1) then the % specific binding calculated, (((y1—non-specific)/(total binding non-specific))×100). […]
# [5] = po, 2 h before recording, APEC 0.01 mg/kg sc
smiles,measurement,setting,value
COc1ccc(N2CCOCC2)c2sc(NC(=O)N3CCC(C)(O)CC3)nc12 [4-hydroxy-4-methyl-piperidine-1-carboxylic acid (4-methoxy-7-morpholin-4-yl-benzothiazol-2-yl)-amide],effect on APEC-induced deficits in locomotor activity,"[1]; 0.3 to 10 mg/kg po, vs vehicle + APEC",significantly reduced
same,"ID50, reversal of APEC-induced deficits in locomotor activity",[1]; [5],0.5 mg/kg
same,"ID90, reversal of APEC-induced deficits in locomotor activity",[1]; [5],3.4 mg/kg
same,proportion of scopolamine-treated animals exhibiting passive avoidance retention (correct responses),"[2]; 100 mg/kg po + scopolamine 1 mg/kg sc, 2 h post-training, scopolamine + vehicle 12.5%",43.75%
same,reversal of the scopolamine-induced retention deficit,"[2]; 3, 10, 30 and 100 mg/kg po immediately post-training",dose-dependent and statistically significant at the highest dose tested (100 mg/kg po); also recorded: dose-dependent reversal
same,Ki,[3],20 nM
same,Ki,[4],1330 ± 106 nM
